Among the data in patent US10647713B2 (Nimbus Lakshmi, Inc., priority 2016, dated 2020) are Kd values, retold here.

Bounds are passed on as bounds.

human TYK2 (JH2domain-pseudokinase), sequence (P29597 556-888): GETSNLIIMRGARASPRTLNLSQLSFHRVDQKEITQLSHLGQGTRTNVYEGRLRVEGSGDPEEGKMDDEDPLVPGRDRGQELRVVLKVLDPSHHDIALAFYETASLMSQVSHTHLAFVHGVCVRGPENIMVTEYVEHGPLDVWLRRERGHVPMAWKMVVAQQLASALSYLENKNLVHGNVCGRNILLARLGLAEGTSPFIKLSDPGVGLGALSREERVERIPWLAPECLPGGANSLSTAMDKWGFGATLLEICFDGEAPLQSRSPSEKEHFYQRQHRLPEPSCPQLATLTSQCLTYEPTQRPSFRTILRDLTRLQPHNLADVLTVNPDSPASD

In the experiment the target is human TYK2 (JH2domain-pseudokinase) (Homo sapiens (Human), UniProt P29597). The experiment in a line: TYK2 JH2 Domain Binding Assay (KINOMEscan, DiscoveRx). Particulars: 11-point dilution, duplicate. Put shortly:
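TYK2 JH2 (G556–D888)–NFkB DBD fusion, DNA-tagged, from HEK293 extracts (<0.1 nM) competed against immobilised biotinylated ligand for 1 h at room temperature, 0.9% DMSO. Bead-retained kinase quantified by qPCR; Kd from 11-point 3-fold series (top 30,000 nM, duplicate), Hill fit with slope −1.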
What is called Kd is the constant that tells how readily two partners part at equilibrium. With `Cc1nc2c(Nc3ccc(C4CCC(C)(C)CO4)cc3S(C)(=O)=O)cc(NC(=O)C3CC3)nc2[nH]1` (centres unmarked) [I-536, N-(7-((4-(5,5-dimethyltetrahydro-2H-pyran-2-yl)-2-(methylsulfonyl)phenyl)amino)-2-methyl-3H-imidazo[4,5-b]pyridin-5-yl)cyclopropanecarboxamide], the Kd is under 0.1 nM.

The compound `Cc1c(-c2ccc(Nc3cc(NC(=O)C4CC4)nc4[nH]c(C(F)F)nc34)c(S(C)(=O)=O)c2)cnn1C1CC1` [I-537, N-(7-((4-(1-cyclopropyl-5-methyl-1H-pyrazol-4-yl)-2-(methylsulfonyl)phenyl)amino)-2-(difluoromethyl)-3H-imidazo[4,5-b]pyridin-5-yl)cyclopropanecarboxamide] returned a Kd of under 0.1 nM.

In the case of `COc1c(Nc2cc(Nc3cccc(C#N)n3)nc3[nH]c(C(F)F)nc23)cccc1-c1ncnn1C` [I-538], the Kd lay within 0.5 to 1 nM.

As to `COc1c(Nc2cc(Nc3cccc(C#N)n3)nc3[nH]c(C)nc23)cccc1-c1ncnn1C` [I-539, 6-((7-((2-methoxy-3-(1-methyl-1H-1,2,4-triazol-5-yl)phenyl)amino)-2-methyl-3H-imidazo[4,5-b]pyridin-5-yl)amino)picolinonitrile], the Kd was in the range of 0.5 to 1 nM.

Regarding `COc1c(Nc2cc(Nc3cccc(C#N)n3)nc3[nH]c(C)nc23)cccc1-c1cnn(C)n1` [I-540, 6-((7-((2-methoxy-3-(2-methyl-2H-1,2,3-triazol-4-yl)phenyl)amino)-2-methyl-3H-imidazo[4,5-b]pyridin-5-yl)amino)picolinonitrile], the Kd lay within 0.1 to 0.5 nM.

In turn, `COc1c(Nc2cc(Nc3cccc(C#N)n3)nc3[nH]c(C(F)F)nc23)cccc1-c1nc(C)nn1C` [I-541, 6-((2-(difluoromethyl)-7-((3-(1,3-dimethyl-1H-1,2,4-triazol-5-yl)-2-methoxyphenyl)amino)-3H-imidazo[4,5-b]pyridin-5-yl)amino)picolinonitrile] displayed a Kd of 0.5 to 1 nM.

Regarding `COc1c(Nc2cc(Nc3cccc(C#N)n3)nc3[nH]c(C)nc23)cccc1-c1nc(C)nn1C` [I-542, 6-((7-((3-(1,3-dimethyl-1H-1,2,4-triazol-5-yl)-2-methoxyphenyl)amino)-2-methyl-3H-imidazo[4,5-b]pyridin-5-yl)amino)picolinonitrile], the Kd was 0.5 to 1 nM.

With `COc1c(Nc2cc(Nc3cccc(C#N)n3)nc3[nH]c(C)nc23)cccc1-c1nc(C)cs1` [I-543, 6-((7-((2-methoxy-3-(4-methylthiazol-2-yl)phenyl)amino)-2-methyl-3H-imidazo[4,5-b]pyridin-5-yl)amino)picolinonitrile], the Kd lay in the range of 1 to 10 nM.

`Cc1nc2c(Nc3ccc(C4CCCO4)cc3S(C)(=O)=O)cc(Nc3cccc(C#N)n3)nc2[nH]1` (centres unmarked) [I-544, 6-((2-methyl-7-((2-(methylsulfonyl)-4-(tetrahydrofuran-2-yl)phenyl)amino)-3H-imidazo[4,5-b]pyridin-5-yl)amino)picolinonitrile] registered a Kd of 0.1 to 0.5 nM.

On to `Cc1nc(-c2ccc(Nc3cc(NC(=O)C4CC4)nc4[nH]c(C(F)F)nc34)c(S(C)(=O)=O)c2)cs1` [I-545, N-(2-(difluoromethyl)-7-((2-(methylsulfonyl)-4-(2-methylthiazol-4-yl)phenyl)amino)-3H-imidazo[4,5-b]pyridin-5-yl)cyclopropanecarboxamide], for which the Kd was 0.1 to 0.5 nM.

In turn, `C#Cc1cccc(Nc2cc(Nc3ccccc3S(C)(=O)=O)c3nc(C(F)F)[nH]c3n2)n1` [I-546, 2-(difluoromethyl)-N5-(6-ethynylpyridin-2-yl)-N7-(2-(methylsulfonyl)phenyl)-3H-imidazo[4,5-b]pyridine-5,7-diamine] yielded a Kd of 1 to 10 nM.

With `C#Cc1cccc(Nc2cc(Nc3ccccc3S(C)(=O)=O)c3nc(C)[nH]c3n2)n1` [I-547, N5-(6-ethynylpyridin-2-yl)-2-methyl-N7-(2-(methylsulfonyl)phenyl)-3H-imidazo[4,5-b]pyridine-5,7-diamine], the Kd was under 0.1 nM.

In the case of `CN=[S@@](C)(=O)c1ccccc1Nc1cc(NC(=O)C2CC2)nc2[nH]c(C)nc12` [I-549, N-(7-((2-(N,S-dimethylsulfonimidoyl)phenyl)amino)-2-methyl-3H-imidazo[4,5-b]pyridin-5-yl)cyclopropanecarboxamide], the Kd is 1 to 10 nM.

Compound `Cc1nc2c(Nc3ccc([C@@H]4CCC(C)(C)CO4)cc3S(C)(=O)=O)cc(NC(=O)C3CC3)nc2[nH]1` [I-550, (S)—N-(7-((4-(5,5-dimethyltetrahydro-2H-pyran-2-yl)-2-(methylsulfonyl)phenyl)amino)-2-methyl-3H-imidazo[4,5-b]pyridin-5-yl)cyclopropanecarboxamide] displayed a Kd of under 0.1 nM.

With `Cc1nc2c(Nc3ccc([C@H]4CCC(C)(C)CO4)cc3S(C)(=O)=O)cc(NC(=O)C3CC3)nc2[nH]1` [I-551, (R)—N-(7-((4-(5,5-dimethyltetrahydro-2H-pyran-2-yl)-2-(methylsulfonyl)phenyl)amino)-2-methyl-3H-imidazo[4,5-b]pyridin-5-yl)cyclopropanecarboxamide], the Kd fell in the range of 0.5 to 1 nM.

On to `CS(=O)(=O)c1cc(F)ccc1Nc1cc(Nc2cccc(C#N)n2)nc2[nH]c(C(F)F)nc12` [I-552, 6-((2-(difluoromethyl)-7-((4-fluoro-2-(methylsulfonyl)phenyl)amino)-3H-imidazo[4,5-b]pyridin-5-yl)amino)picolinonitrile], for which the Kd lay in the range of 0.1 to 0.5 nM.

Turning to `Cc1nc2c(Nc3ccc(F)cc3S(C)(=O)=O)cc(Nc3cccc(C#N)n3)nc2[nH]1` [I-553, 6-((7-((4-fluoro-2-(methylsulfonyl)phenyl)amino)-2-methyl-3H-imidazo[4,5-b]pyridin-5-yl)amino)picolinonitrile], the Kd was 0.1 to 0.5 nM.

`COc1cc(-c2nn(C)cc2C)ccc1Nc1cc(NC(=O)C2CC2)nc2[nH]c(C(F)F)nc12` [I-554, N-(2-(difluoromethyl)-7-((4-(1,4-dimethyl-1H-pyrazol-3-yl)-2-methoxyphenyl)amino)-3H-imidazo[4,5-b]pyridin-5-yl)cyclopropanecarboxamide] had a Kd of 1 to 10 nM.

`COc1cc(-c2nn(C)cc2C)ccc1Nc1cc(NC(=O)C2CC2)nc2[nH]c(C)nc12` [I-555, N-(7-((4-(1,4-dimethyl-1H-pyrazol-3-yl)-2-methoxyphenyl)amino)-2-methyl-3H-imidazo[4,5-b]pyridin-5-yl)cyclopropanecarboxamide]: the Kd lay within 0.5 to 1 nM.

In the case of `COc1c(Nc2cc(NC(=O)C3CC3)nc3[nH]c(C(F)F)nc23)ccc(-c2nn(C)cc2C)c1F` [I-556, N-(2-(difluoromethyl)-7-((4-(1,4-dimethyl-1H-pyrazol-3-yl)-3-fluoro-2-methoxyphenyl)amino)-3H-imidazo[4,5-b]pyridin-5-yl)cyclopropanecarboxamide], the Kd was over 10 nM.

The compound `COc1c(Nc2cc(NC(=O)C3CC3)nc3[nH]c(C)nc23)ccc(-c2nn(C)cc2C)c1F` [I-557, N-(7-((4-(1,4-dimethyl-1H-pyrazol-3-yl)-3-fluoro-2-methoxyphenyl)amino)-2-methyl-3H-imidazo[4,5-b]pyridin-5-yl)cyclopropanecarboxamide] returned a Kd of over 10 nM.

The compound `COc1c(Nc2cc(Nc3cccc(C#N)n3)nc3[nH]c(C(F)F)nc23)cccc1-c1nccs1` [I-558, 6-((2-(difluoromethyl)-7-((2-methoxy-3-(thiazol-2-yl)phenyl)amino)-3H-imidazo[4,5-b]pyridin-5-yl)amino)picolinonitrile] registered a Kd of 1 to 10 nM.

`COc1cc(-c2nc(C)c(C)s2)ccc1Nc1cc(NC(=O)C2CC2)nc2[nH]c(C)nc12` [I-559, N-(7-((4-(4,5-dimethylthiazol-2-yl)-2-methoxyphenyl)amino)-2-methyl-3H-imidazo[4,5-b]pyridin-5-yl)cyclopropanecarboxamide] registered a Kd of 1 to 10 nM.

`Cc1nc2c(Nc3ccc(-c4nn(C)c(C)c4C)cc3S(C)(=O)=O)cc(NC(=O)C3CC3)nc2[nH]1` [I-560, N-(2-methyl-7-((2-(methylsulfonyl)-4-(1,4,5-trimethyl-1H-pyrazol-3-yl)phenyl)amino)-3H-imidazo[4,5-b]pyridin-5-yl)cyclopropanecarboxamide] displayed a Kd of under 0.1 nM.

Take `Cc1nc2c(Nc3ccc(-c4oc(C)cc4C)cc3S(C)(=O)=O)cc(NC(=O)C3CC3)nc2[nH]1` [I-561, N-(7-((4-(3,5-dimethylfuran-2-yl)-2-(methylsulfonyl)phenyl)amino)-2-methyl-3H-imidazo[4,5-b]pyridin-5-yl)cyclopropanecarboxamide]: the Kd fell in the range of 1 to 10 nM.

Consider `Cc1nc2c(Nc3ccc(-c4cnn(C5CC5)c4C)cc3S(C)(=O)=O)cc(NC(=O)C3CC3)nc2[nH]1` [I-562, N-(7-((4-(1-cyclopropyl-5-methyl-1H-pyrazol-4-yl)-2-(methylsulfonyl)phenyl)amino)-2-methyl-3H-imidazo[4,5-b]pyridin-5-yl)cyclopropanecarboxamide], for which the Kd was under 0.1 nM.

As to `Cc1cc(Nc2cc(Nc3ccc(C4=NC(C)(C)CS4)cc3S(C)(=O)=O)c3nc(C(F)F)[nH]c3n2)nc(C)n1` [I-563, 2-(difluoromethyl)-N7-(4-(4,4-dimethyl-4,5-dihydrothiazol-2-yl)-2-(methylsulfonyl)phenyl)-N5-(2,6-dimethylpyrimidin-4-yl)-3H-imidazo[4,5-b]pyridine-5,7-diamine], the Kd lay in the range of 1 to 10 nM.

The compound `Cc1cc(Nc2cc(Nc3ccc(C4=NC(C)(C)CS4)cc3S(C)(=O)=O)c3nc(C)[nH]c3n2)nc(C)n1` [I-564, N7-(4-(4,4-dimethyl-4,5-dihydrothiazol-2-yl)-2-(methylsulfonyl)phenyl)-N5-(2,6-dimethylpyrimidin-4-yl)-2-methyl-3H-imidazo[4,5-b]pyridine-5,7-diamine] registered a Kd of 0.1 to 0.5 nM.

The compound `Cc1ncc(Nc2cc(Nc3ccc(C4=NC(C)(C)CS4)cc3S(C)(=O)=O)c3nc(C(F)F)[nH]c3n2)nc1C` [I-565, 2-(difluoromethyl)-N7-(4-(4,4-dimethyl-4,5-dihydrothiazol-2-yl)-2-(methylsulfonyl)phenyl)-N5-(5,6-dimethylpyrazin-2-yl)-3H-imidazo[4,5-b]pyridine-5,7-diamine] displayed a Kd of 1 to 10 nM.
